Measurements: patent US20030091615A1, “Use of betaine to enhance exercise performance” (priority 2001, published 2003)

Tested on: male subjects
Experiment: Randomized placebo-controlled double blind exercise test: rehydration solution, 75 min treadmill run in 30° C. heat, then sprint to volitional exhaustion
Format: in vivo, human
Source text: Ten male subjects were selected to participate in four experimental tests, described below. The study design was a randomized placebo-controlled double blind test. These tests were identical, except that a different rehydration solution was consumed during each session. The rehydration solutions are:
(a) Non-nutritive KOOL-AID®;
(b) Non-nutritive KOOL-AID® and betaine (5 g/l);
(d) GATORADE® and betaine (5 g/l).
The order of treatment for each subject was randomized.
The following measurements were taken throughout each of the four experimental tests:
1) Hydration variables were measured each day, including urine specific gravity and color, body weight, plasma osmolity.
2) Blood variables were sampled during each trial, including, hematocrit, hemoglobin, osmolality, glucose, lactate.
3) Physiological variables were measured during each trial, such as time to exhaustion (duration of final sprint), heart rate, blood pressure, oxygen consumption, minute ventilation, mean weighted skin temperature, rectal temperature, whole body sweat rate.
4) Perceptual variables were recorded, such as rating of perceived exertion (Borg scale) during the exercise test, thermal stress during the exercise test, thirst sensation during the exercise test.
Each subject participated in four experimental tests, performed at the same time of day for each subject, using the same posture at each stage of testing. Experimental tests were randomized. Trials were conducted in an environmental chamber controlled at 30° C.
When they arrived at the test center at 7:00 a.m., the body weight was measured, a blood sample was taken and the specific gravity of the urine was measured. In general, the subjects were mildly dehydrated, losing approximately 1% body weight. […] Subsequently, thereto, they then entered an environmental chamber which was maintained at a temperature of 30° C. and they stood for thirty minutes to effect fluid and thermal equilibration.
Various measurements were taken of each subject including blood pressure, urine specific gravity, body weight, blood pressure, plasma, osmolality and a blood sample when in the environmental chamber prior to the test. Each then performed cycling and walking exercise for 60-90 minutes at 50-55% VO2max so that they each lost about 3% of body weight.
At about 9:30 a.m., they consumed one of the above fluids.
The total volume was ingested in five equal portions over 25 minutes. (This increased the body weight change to a −1.5% level). They each stood an additional twenty minutes to allow gastric emptying. Then they began a treadmill run for 75 minutes at 65% VO2max. They finished the exercise in the heat by a sprinting to volitional exhaustion at a treadmill pace that elicits 90% VO2max. At the conclusion, they stood in the environmental chamber for additional measurements during a 15 minute recovery period. They left the chamber, then ate a meal and drank fluids.
The test was repeated for each person three more times, except each time they ingested a different one of the fluids so that at the end of the test, each subject had ingested each one of the four fluids. Subjects were instructed to match the diet they ate before the initial experiment, during the three subsequent trials. […]

## C[N+](C)(C)CC(=O)[O-] [betaine, trimethylglycine]
GATORADE trials, betaine 5 g/l
  increased plasma lactate levels 15 minutes after the sprint: 17%
  increased plasma lactate levels immediately after the sprint: 10%
GATORADE trials, betaine 5 g/l vs GATORADE alone
  greater oxygen uptake (aerobic metabolism) while sprinting: 6%
KOOL-AID trials, betaine 5 g/l
  increased plasma lactate levels after the sprint: This effect was not seen
KOOL-AID trials, betaine 5 g/l vs KOOL-AID alone
  greater oxygen uptake (aerobic metabolism) while sprinting: This effect was not seen
